Reference: US12357603B2, “Acyl sulfonamides for treating cancer” (Bayer Aktiengesellschaft, priority 2019, dated 2025)
Read-outs that look alike come from different tables or passages of the source.

Assays:
MDA-MB-436 cells = assay: Proliferation assay MDA-MB-436, negative control cell line (Alamar Blue, 144 h); type: cell-based; conditions: arithmetic mean
Source text: (§1) Proliferation Assays for Compound Characterization
(§2) For compound characterization cell survival assays were routinely run in two cell lines. ZR-75-1 is a breast carcinoma cell line containing a focal KAT6A amplification and high KAT6A protein expression. Proliferation of this cell line is inhibited upon treatment with KAT6A inhibitors. As a negative control cell line MDA-MB-436 were used. These cells carry a […] deletion of the KAT6A gene, have a low KAT6A protein expression and are not growth inhibited upon treatment with KAT6A inhibitors.
(§3) For measurements cell lines were plated at the below indicated concentration per […] in 96-well plates in a humidified incubator at 37° C. and 5% CO2.
MDA-MB-436 (CLS, 300278; breast adenocarcinoma); 3000 cells per well; culture medium: DMEM/Ham's F12 (Biochrom #FG 4815) medium containing 2.5% FBS (Biochrom #S0615).
(§4) 24 hours later, cells were treated with compounds (stock solution, 10 mM in DMSO) using the HP D300 Digital Dispenser in a concentration range of 2.0×10E-5 M to 2.0×10E-9 M in a single-dot curve with 9 dilutions and a DMSO concentration of 0.2%. Each sample was prepared as triplicate and rim wells were excluded. Plates were incubated at 37° C. and 5% CO2 for 144 h. Cell viability was measured by adding 10 μL of Alamar Blue Reagent (Invitrogen #DAL 1100) and plates were incubated for 2 h at 37° C. and 5% CO2. Fluorescence was measured at 590 nm wavelength with a Tecan Spark or Victor X3 MTP-Reader (PerkinElmer).

[1] = tested on: ESR1 transcription (luciferase signal in MVLN cells); assay: Repression of ESR1 transcription, luciferase reporter in MVLN cells; type: cell-based; conditions: inhibition of luciferase signal in MVLN cells, arithmetic mean
Source text: Repression of ESR1 Transcription Upon Treatment of Cells with Compounds
KAT6A controls transcription of the ESR1 gene in breast cancer cells. Compound treatment that interferes with this mechanism was quantified using MVLN cells. These cells constitutively express the ER and are stably transfected with the luciferase (LUC) reporter gene and the corresponding hormone responsive element derived from the 5′-flanking region of the Xenopus Vitellogenin A2 gene (Pons et al., 1990, Demirpense et al., 1993, Joyeux et al., 1993). The repressive effect on ERα transcription activity of a test chemical is directly related to the luciferase measured in the lysate of treated MVLN cells.
Each sample was prepared as duplicate and rim wells were excluded. For luciferase signal determination 100 μl of a 1:1 mixture of Steadylite plus (Perkin Elmer; 6016759) and assay medium was added after 24 h for 15 minutes and measured in Victor X3 (Perkin Elmer). To exclude any effects caused by cell loss during the treatment, cell density was determined using Alamar Blue (Invitrogen; DAL1100). Prior to the luciferase measurement 10 μl Alamar Blue were added to each well and the plates were incubated for 2 h in the incubator. Then fluorescence was measured with Victor X3 (Perkin Elmer) at 530 nm/590 nm.

[2] = biological target: Recombinant human His-tagged Kat6a protein (amino acids 194-810) (Homo sapiens (Human), UniProt Q92794); assay: Kat6a activity assay (TR-FRET, acetylation of biotinylated Histone-H4-derived peptide); type: biochemical; conditions: 60 mins at 22° C., read-out: KAT6A-DPF/HAT domain IC50 [mol/l] (arithmetic mean)
Recombinant human His-tagged Kat6a protein (amino acids 194-810), sequence (Q92794 194-810): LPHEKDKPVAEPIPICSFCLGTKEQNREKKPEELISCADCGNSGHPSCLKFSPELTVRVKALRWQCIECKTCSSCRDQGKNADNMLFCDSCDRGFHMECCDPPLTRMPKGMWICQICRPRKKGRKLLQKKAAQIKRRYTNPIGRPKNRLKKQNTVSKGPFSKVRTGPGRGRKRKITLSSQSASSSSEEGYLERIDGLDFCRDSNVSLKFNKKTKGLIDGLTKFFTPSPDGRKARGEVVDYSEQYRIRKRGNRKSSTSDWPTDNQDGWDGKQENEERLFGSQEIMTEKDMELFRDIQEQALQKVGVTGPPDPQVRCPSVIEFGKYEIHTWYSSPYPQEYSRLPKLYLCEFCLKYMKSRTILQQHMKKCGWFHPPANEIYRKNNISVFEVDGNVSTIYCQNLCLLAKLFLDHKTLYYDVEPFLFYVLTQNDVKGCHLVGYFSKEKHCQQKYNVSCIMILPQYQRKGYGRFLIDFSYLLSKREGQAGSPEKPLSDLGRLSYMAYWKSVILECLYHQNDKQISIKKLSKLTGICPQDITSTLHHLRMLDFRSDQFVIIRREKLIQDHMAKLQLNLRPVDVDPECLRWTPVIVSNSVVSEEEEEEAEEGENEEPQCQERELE
Source text: Kat6a inhibitory activities of the compounds described in the present invention were quantified using a Fluorescence Resonance Energy Transfer (TR-FRET) assay which measures acetylation of a synthetic, biotinylated Histone-H4-derived peptide by the enzyme.
Recombinant human His-tagged Kat6a protein (amino acids 194-810), was purified in-house from Baculovirus-infected insect cells (Sf9). Histone H4 peptide (amino acids 1-24, […]-VLRD-K(Btn)-amide), which was used as substrate, was synthesized by Biosyntan GmbH, Berlin, Germany. Acetyl Coenzyme A was purchased from Sigma-Aldrich (#A-2056).
Kat6a was incubated for 60 mins at 22° C. in the presence of different concentrations of test substances (0 μM, and within the range 0.01-20 μM) in assay buffer [25 mM Tris/HCl pH 8, 1 mM EGTA, 2.5 mM Glutathion, 0.02% Chicken Albumin, 0.05% Pluronic F127, 25 mM NaCl, 220 nM H4 peptide and 600 nM Acetyl Coenzym A].
The reaction was stopped by addition of Detection Solution (25 mM HEPES pH 7.5, 0.1% BSA, 22 nM SAXL665 (Cisbio #610SAXLE), 100 μM Anacardic Acid (Enzo #ALX-270-381), 1 nM Anti-Histone H4 (ACETYL K8) Antibody (ABCAM #AB15823) and 0.5 nM Anti-Rabbit IgG Eu (Perkin Elmer #AD0083).
The fluorescence emission at 620 nm and 665 nm after excitation at 330-350 nm was measured in a TR-FRET measuring instrument, for instance a Rubystar or a Pherastar (both from BMG Lab Technologies, Offenburg, Germany) or a Viewlux (Perkin-Elmer). The ratio of the emission at 665 nm and at […] was used as indicator of the amount of acetylated peptide.
The resulting data (ratio) were normalized, taking 0% inhibition as the mean value of control measurements where all reagents were included. In this case 50 nl DMSO were used instead of compounds. […] IC50 values were determined by regression analysis based on a 4 parameter equation (minimum, maximum, ICM, Hill; Y=Max+(Min−Max)/(1+(X/ICso) Hill) using the Screener Software (Genedata).
Table 5 depicts the IC50 values of selected examples in biochemical KAT6A and KAT6B3 assays.

ZR-75-1 cells = assay: Proliferation assay ZR-75-1 (Alamar Blue, 144 h); type: cell-based; conditions: arithmetic mean, read-out: ZR75-1 proliferation assay, EC50 [M] (arithmetic mean)
Source text: as §1, §2, §3
ZR-75-1 (ATCC, CRL-1500; breast carcinoma); 3000 cells per well; culture medium: RPMI 1640 (Biochrom #FG 1215) medium containing 2.5% FBS (Biochrom #S0615).
as §4

[3] = Homo sapiens, MDA-MB-436, 144 h

IC50 [2] [nM]	EC50 (MDA-MB-436 cells; [3]) [nM]	IC50 ([1]; Homo sapiens, MVLN) [nM]	SMILES	EC50 (MDA-MB-436 cells) [nM]	IC50 [1] [nM]	EC50 (ZR-75-1 cells; Homo sapiens, ZR-75-1, 144 h) [M]	EC50 (ZR-75-1 cells) [M]
–	> 20000	–	CN(C)c1ccc2cc(C(=O)NS(=O)(=O)c3ccccc3-c3ccc(CO)cc3)oc2c1 [Example 51, 6-(Dimethylamino)-N-[4′-(hydroxymethyl)[1,1′-biphenyl]-2-sulfonyl]-1-benzofuran-2-carboxamide]	–	–	1.01e-07	–
4.5	–	52.1	CN(C)c1ccc2cc(C(=O)NS(=O)(=O)c3c(OCc4ccccc4)cccc3OC3CCC3)oc2c1 [Example 69, N-[2-(Benzyloxy)-6-(cycolbutyloxy)benzene-1-sulfonyl]-6-(dimethylamino)-1-benzofuran-2-carboxamide]	–	–	3.84e-07	–
151	–	394	CN(C)c1ccc2cc(C(=O)NS(=O)(=O)c3ccc([N+](=O)[O-])c4cccnc34)oc2c1 [Example 92, 6-(Dimethylamino)-N-(5-nitroquinoline-8-sulfonyl)-1-benzofuran-2-carboxamide]	–	–	3.43e-07	–
287	> 20000	460	CCc1ccc2nc(C)c(S(=O)(=O)NC(=O)c3cc4ccc(N(C)C)cc4o3)n2n1 [Example 94, 6-(Dimethylamino)-N-(6-ethyl-2-methylimidazo[1,2-b]pyridazine-3-sulfonyl)-1-benzofuran-2-carboxamide]	–	–	–	–
3200	> 20000	> 20000	CN(C)c1ccc2cc(C(=O)NS(=O)(=O)Cc3ccccn3)oc2c1 [Example 106, 6-(Dimethylamino)-N-[(pyridin-2-yl)methanesulfonyl]-1-benzofuran-2-carboxamide]	–	–	–	–
2.29	–	8.63	CCOc1ccc(C(C)C)cc1S(=O)(=O)NC(=O)c1cc2c(F)cc(N(C)C)cc2o1 [Example 107, 6-(Dimethylamino)-N-[2-ethoxy-5-(propan-2-yl)benzene-1-sulfonyl]-4-fluoro-1-benzofuran-2-carboxamide]	–	–	4.49e-08	–
–	> 20000	254	CN(C)c1ccc2cc(C(=O)NS(=O)(=O)c3cc(Cl)cc4cccnc34)oc2c1 [Example 124, N-(6-Chloroquinolone-8-sulfonyl)-6-(dimethylamino)-1-benzofuran-2-carboxamide]	–	–	–	–
906	–	2720	CN(C)c1ccc2cc(C(=O)NS(=O)(=O)c3ccc(F)c(F)c3F)oc2c1 [Example 153]	–	–	2.77e-06	–
3080	–	11500	Cc1cnc(Cl)c(S(=O)(=O)NC(=O)c2cc3ccc(N(C)C)cc3o2)c1 [Example 154]	–	–	7e-06	–
932	–	1930	CC(C)Nc1cccc(F)c1S(=O)(=O)NC(=O)c1cc2ccc(N(C)C)cc2o1 [Example 155]	–	–	7.62e-06	–
3530	–	971	CN(C)c1ccc2cc(C(=O)NS(=O)(=O)c3cccnc3Cl)oc2c1 [Example 156]	–	–	4.97e-06	–
3180	–	6450	Cc1cccc(C2CCCC2)c1S(=O)(=O)NC(=O)c1cc2ccc(N(C)C)cc2o1 [Example 157]	–	–	9.45e-06	–
684	–	1490	CN(C)c1ccc2cc(C(=O)NS(=O)(=O)c3c(F)cccc3C3CCC3)oc2c1 [Example 158]	–	–	7.93e-06	–
233	–	519	Cc1ccc(S(=O)(=O)NC(=O)c2cc3ccc(N(C)C)cc3o2)c(OC(F)F)c1 [Example 159]	–	–	6.97e-07	–
324	–	741	CN(C)c1ccc2cc(C(=O)NS(=O)(=O)c3c(F)cccc3OCC3CC3)oc2c1 [Example 160]	–	–	5.7e-06	–
6770	–	> 20000	CN(C)c1ccc2cc(C(=O)NS(=O)(=O)c3cc(CO)ccc3OC(F)(F)F)oc2c1 [Example 161]	–	–	> 2e-05	–
366	–	2550	CC(C)c1ccc(C(C)C)c(S(=O)(=O)NC(=O)c2cc3ccc(N(C)C)cc3o2)c1 [Example 162]	–	–	> 2e-05	–
4350	–	> 20000	CC(O)c1ccc(Cl)c(S(=O)(=O)NC(=O)c2cc3ccc(N(C)C)cc3o2)c1 (centres unmarked) [Example 163]	–	–	9.38e-07	–
4450	–	> 20000	COCCOc1ccc(Cl)c(S(=O)(=O)NC(=O)c2cc3ccc(N(C)C)cc3o2)c1 [Example 164]	–	–	> 2e-05	–
1290	–	5770	CN(C)c1ccc2cc(C(=O)NS(=O)(=O)c3cc(C(F)(F)F)ccc3NCC(F)F)oc2c1 [Example 165]	–	–	9.21e-06	–
137	–	4230	CCOc1ccccc1S(=O)(=O)NC(=O)c1cc2cc(C(F)(F)F)c(N(C)C)cc2o1 [Example 201, 6-(Dimethylamino)-N-(2-ethoxybenzene-1-sulfonyl)-5-(trifluoromethyl)-1-benzofuran-2-carboxamide]	–	–	2.9e-06	–
–	–	> 20000	Cc1ccc2cccc(S(=O)(=O)NC(=O)c3cc4cc(C#N)c(N(C)C)cc4o3)c2n1 [Example 209, 5-Cyano-6-(dimethylamino)-N-(2-methylquinoline-8-sulfonyl)-1-benzofuran-2-carboxamide]	–	–	9.4e-06	–
6660	–	11300	CN(C)c1ccc2cc(C(=O)NS(=O)(=O)c3ccccc3-c3ccccc3)n(C)c2c1 [Example 210, N-([1,1′-Biphenyl]-2-sulfonyl)-6-(dimethylamino)-1-methyl-1H-indole-2-carboxamide]	–	–	> 2e-05	–
–	–	–	CN(C)c1ccc2cc(C(=O)NS(=O)(=O)c3ccccc3-c3ccccc3)oc2c1 [Example 226]	–	180	–	2.46e-07

SMILES	IC50 [2] [nM]	EC50 (MDA-MB-436 cells; [3]) [nM]	IC50 ([1]; Homo sapiens, MVLN) [nM]	EC50 (MDA-MB-436 cells) [nM]	IC50 [1] [nM]	EC50 (ZR-75-1 cells; Homo sapiens, ZR-75-1, 144 h) [M]	EC50 (ZR-75-1 cells) [M]
C[C@H](Oc1cccc(OC2CCC2)c1S(=O)(=O)NC(=O)c1cc2ccc(N(C)C)cc2o1)C(F)(F)F (single isomer, unassigned) [Example 221]	44.4	–	–	8250	582	–	–
C[C@@H](Oc1cccc(OC2CCC2)c1S(=O)(=O)NC(=O)c1cc2ccc(N(C)C)cc2o1)C(F)(F)F (single isomer, unassigned) [Example 222]	30.6	–	–	> 20000	595	–	–
